Key:
[1] = system: multiple myeloma cell line L363; experiment: L363 cell viability, nirogacestat pre-treatment then belantamab mafodotin or controls; type: cell-based; details: nirogacestat pre-treatment 24 hours, then treatment for additional 72 hours
[2] = cited from earlier work
[3] = cited from earlier work; remark: listed apart in the source

Molecule | effect on cell viability [1] | time to pharmacodynamically active plasma levels ([2]; after treatment initiation) [h] | exposure versus dose ([2]; between 20 and 330 mg BID) | time to steady-state ([2]; repeated BID administration) [days] | incidence of dose-limiting diarrhea and elevated liver enzymes ([3]; compared with RO4929097 or MK-0752 (Messersmith, 2015)) | safety profile versus other gamma-secretase inhibitors ([3]; in vivo) | incidence of secondary primary malignancies (SPM) or treatment-emergent infections ([3]; unlike e.g. semagacestat (Messersmith, 2015; Henley, 2014))
CCC[C@H](N[C@H]1CCc2cc(F)cc(F)c2C1)C(=O)Nc1cn(C(C)(C)CNCC(C)(C)C)cn1 [nirogacestat, (S)-2-(((S)-6,8-difluoro-1,2,3,4-tetrahydronaphthalen-2-yl)amino)-N-(1-(2-methyl-1-(neopentylamino)propan-2-yl)-1H-imidazol-4-yl)pentanamide] | no effect | < 48 | dose-proportional | ≤ 8 | does not appear to be as high | better safety profile | there does not seem to be an increased incidence
Belantamab | no effect |  |  |  |  |  | 
